Experimental data as given in publication PMC5940854, “Nitrothiophene carboxamides, a novel narrow spectrum antibacterial series: Mechanism of action and Efficacy” (Scientific Reports, 2018).
≈ marks a conversion by molar mass, not a printed value. Read-outs that look alike come from different tables or passages of the source.

How the values were obtained:
E. coli ∆acrB JW0451-2 = assay: MIC, E. coli ∆acrB; format: cell-based; design: MIC ∆acrB: unit not given beside the values
Method in brief: (§1)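 Growth inhibition was read as absorbance at 600 nm after exposing 3–7 × 10^5 CFU/ml cultures in M9 medium to final compound concentrations of 40 µg/mL to 0.3 µg/mL. For killing kinetics, ~10^7 CFU/ml cells were treated over 0 to 8 h and survivors counted.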

[1] = tested on: wild-type E. coli CGSC#7636 (BW25113); assay: MIC, wild-type E. coli; format: cell-based; settings: Escherichia coli, read-out: MIC WT
Method in brief: as §1

[2] = tested on: E. coli clinical isolates; assay: MIC on panel of E. coli clinical isolates; format: cell-based
NfsB = molecular target: T1, NfsB (Escherichia coli, UniProt P38489); assay: Nitroreductase activity assay, NfsB; format: biochemical, E. coli; settings: 20 μM compound, 40 μM NADH, 70 nM NfsB; slope of initial velocity
T1 construct: His-tag; made in house; host or cells: E. coli BL21(DE3), pET28a (pET-nfsB)
Experimental: Enzyme reducing each of the substrates are measured by monitoring the concomitant oxidation of NADPH by NfsA and NADH by NfsB in a fluorescence based assay. The reduction in fluorescence due to the NADH oxidation (excitation 350 nm, emission 460 nm) and NADPH oxidation (excitation 340 nm, emission 485 nm) is recorded using a TECAN Infinite M200Pro spectrophotometer, in half area solid black microtiter plates. This change in fluorescence directly corelates to the reduction of the nitro-compounds in the reaction. The NfsA assays is performed by initiating the reactions with 40 μM NADPH and 10 nM NfsA in 50 mM Tris-HCl (pH 7.4), 5 mM EDTA against 20 μM substrate (5 μl of compounds/substrate dissolved in 100% DMSO) in a total reaction volume of 100 μl at 25 °C. Similarly, the NfsB assay is also performed by initiating the reactions with 40 μM NADH and 70 nM NfsB in 50 mM Tris-HCl (pH 7.4), 5 mM EDTA against 20 μM substrate in a total reaction volume of 100 μl. […] All reactions are performed in replicates of two or more and the fluorescence measurements are made at 10 second intervals for 5–10 minutes.
Low solubility of the compounds/substrates under the NfsA and NfsB assay conditions precluded determination of their Km. […] The relative fluorescence units (RFU) obtained due to NADPH (excitation 340 nm, emission 485 nm) or NADH (excitation 350 nm, emission 460 nm) oxidation of the first 90 sec reaction is used to compute the slopes using linear regression analysis on GraphPad Prism. Appropriate blank reactions are included to account for background fluorescence/quenching from each of the components such as DMSO, the compound itself and auto-oxidation of NADPH or NADH. Activity of NfsB with a known substrate such as nitrofurantoin is used as a benchmark to plot the relative activities with all the test compounds.

[3] = tested on: E. coli ∆nfsAB & ∆acrB+nfnB; design: unit not given beside the values
Experimental: The inoculum used for all the experiments is derived from a single seed lot that is maintained as glycerol stocks at −80 °C and are sub cultured on LB plate for isolated colonies. Single colony of each strain is grown in M9 medium. All test compound stocks and dilutions are prepared in DMSO. Serial two-fold dilutions of compounds are prepared separately, with the concentrations ranging from 2 mg/mL to 0.015 mg/mL. To 150 µl (3–7 × 10^5 CFU/ml) of bacterial culture in 96 well microtitre plates, 3 μL compound from each of the dilutions is added to respective wells to obtain final concentrations ranging from 40 µg/mL to 0.3 µg/mL of the test compounds. Media control, culture control and appropriate reference drug controls are included. […] Growth is monitored by checking absorbance at 600 nm (A600). […] The samples from MIC and above concentrations are plated for MBC (Minimum Bactericidal Concentration). The samples are diluted 1:10 and plated on LB agar plates. […] The killing kinetics is determined by enumerating survivors at various time points following compound exposure. E. coli cells (~10^7 CFU/ml; A600 of 0.1) are treated with various concentrations (40 µg/mL to 0.3 µg/mL) of compounds in a 96-well microtitre plate. At various time intervals (0 to 8 h), 30 μl volumes of treated cultures are serially diluted and plated on LB agar plates. […] Data is expressed as the log10 CFU for each drug treatment.

T1 sequence (P38489 whole entry): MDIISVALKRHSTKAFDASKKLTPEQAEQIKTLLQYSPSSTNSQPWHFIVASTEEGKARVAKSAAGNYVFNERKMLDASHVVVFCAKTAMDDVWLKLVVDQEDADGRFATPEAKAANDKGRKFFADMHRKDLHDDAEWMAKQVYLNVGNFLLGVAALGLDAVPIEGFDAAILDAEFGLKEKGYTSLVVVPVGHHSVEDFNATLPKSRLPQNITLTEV

## O=C(Nc1nc(-c2ccc(F)cc2)cs1)c1ccc([N+](=O)[O-])s1 [compound 15, N-(4-(4-Fluorophenyl)thiazol-2-yl)-5-nitrothiophene-2-carboxamide]
E. coli ∆acrB JW0451-2; Escherichia coli, read-out: MIC acrB
  MIC: 0.6 µg/mL (≈ 1.72 µM)
E. coli ∆acrB JW0451-2; Table S11
  MIC ∆acrB: 0.6
[1]; BW25113, E. coli WT BW25113
  MIC: 1.25 µg/mL (≈ 3.58 µM)
[1]; BW25113, Table S11
  MIC: 1.25 µg/mL (≈ 3.58 µM)
[2]; 75 E.coli clinical isolates
  MIC Range: 0.6 to 40 µg/mL
[2]; Escherichia coli, 75 E.coli clinical isolates, 50% clinical isolates
  MIC50: 1.25 µg/mL (≈ 3.58 µM)
[2]; Escherichia coli, 75 E.coli clinical isolates, 90% clinical isolates
  MIC90: 10 µg/mL (≈ 28.6 µM)
[2]; strain SEC001
  MIC: 1 µg/mL (≈ 2.86 µM)
[2]; strain SEC002
  MIC: 0.5 µg/mL (≈ 1.43 µM)
[2]; strain SEC003
  MIC: 4 µg/mL (≈ 11.4 µM)
[2]; strain SEC004
  MIC: 1 µg/mL (≈ 2.86 µM)
[2]; strain SEC005
  MIC: 0.5 µg/mL (≈ 1.43 µM)
[2]; strain SEC006
  MIC: 0.5 µg/mL (≈ 1.43 µM)
[2]; strain SEC007
  MIC: 1 µg/mL (≈ 2.86 µM)
[2]; strain SEC008
  MIC: 4 µg/mL (≈ 11.4 µM)
[2]; strain SEC011
  MIC: 0.5 µg/mL (≈ 1.43 µM)
[2]; strain SEC012
  MIC: 1 µg/mL (≈ 2.86 µM)
[2]; strain SEC013
  MIC: 2 µg/mL (≈ 5.72 µM)
[2]; strain SEC014
  MIC: 1 µg/mL (≈ 2.86 µM)
[2]; strain SEC015
  MIC: 0.5 µg/mL (≈ 1.43 µM)
[2]; strain SEC016
  MIC: 8 µg/mL (≈ 22.9 µM)
[2]; strain SEC017
  MIC: 1 µg/mL (≈ 2.86 µM)
[2]; strain SEC018
  MIC: 0.5 µg/mL (≈ 1.43 µM)
[2]; strain SEC019
  MIC: 4 µg/mL (≈ 11.4 µM)
[2]; strain SEC020
  MIC: 1 µg/mL (≈ 2.86 µM)
[2]; strain SEC021
  MIC: 0.5 µg/mL (≈ 1.43 µM)
[2]; strain SEC022
  MIC: 1 µg/mL (≈ 2.86 µM)
[2]; strain SEC023
  MIC: 0.5 µg/mL (≈ 1.43 µM)
[2]; strain SEC024
  MIC: 2 µg/mL (≈ 5.72 µM)
[2]; strain SEC025
  MIC: 4 µg/mL (≈ 11.4 µM)
[2]; strain SEC026
  MIC: 2 µg/mL (≈ 5.72 µM)
[2]; strain SEC028
  MIC: 1 µg/mL (≈ 2.86 µM)
[2]; strain SEC029
  MIC: 8 µg/mL (≈ 22.9 µM)
[2]; strain SEC031
  MIC: 8 µg/mL (≈ 22.9 µM)
[2]; strain SEC032
  MIC: 1 µg/mL (≈ 2.86 µM)
[2]; strain SEC033
  MIC: 1 µg/mL (≈ 2.86 µM)
[2]; strain SEC034
  MIC: 1 µg/mL (≈ 2.86 µM)
[2]; strain SEC035
  MIC: 8 µg/mL (≈ 22.9 µM)
[2]; strain SEC036
  MIC: 2 µg/mL (≈ 5.72 µM)
[2]; strain SEC037
  MIC: 8 µg/mL (≈ 22.9 µM)
[2]; strain SEC038
  MIC: 8 µg/mL (≈ 22.9 µM)
[2]; strain SEC039
  MIC: 4 µg/mL (≈ 11.4 µM)
[2]; strain SEC040
  MIC: 8 µg/mL (≈ 22.9 µM)
[2]; strain SEC041
  MIC: 8 µg/mL (≈ 22.9 µM)
[2]; strain SEC042
  MIC: 8 µg/mL (≈ 22.9 µM)
[2]; strain SEC043
  MIC: 8 µg/mL (≈ 22.9 µM)
[2]; strain SEC044
  MIC: 8 µg/mL (≈ 22.9 µM)
[2]; strain SEC045
  MIC: 8 µg/mL (≈ 22.9 µM)
[2]; strain SEC046
  MIC: 8 µg/mL (≈ 22.9 µM)
[2]; strain SEC047
  MIC: 8 µg/mL (≈ 22.9 µM)
[2]; strain SEC048
  MIC: 8 µg/mL (≈ 22.9 µM)
[2]; strain SEC049
  MIC: 8 µg/mL (≈ 22.9 µM)
[2]; strain SEC050
  MIC: 2 µg/mL (≈ 5.72 µM)
[2]; strain SEC051
  MIC: 2 µg/mL (≈ 5.72 µM)
[2]; strain SEC052
  MIC: 1 µg/mL (≈ 2.86 µM)
[2]; strain SEC053
  MIC: 8 µg/mL (≈ 22.9 µM)
[2]; strain SEC054
  MIC: 1 µg/mL (≈ 2.86 µM)
[2]; strain SEC055
  MIC: 1 µg/mL (≈ 2.86 µM)
[2]; strain SEC057
  MIC: 1 µg/mL (≈ 2.86 µM)
[2]; strain SEC058
  MIC: 0.5 µg/mL (≈ 1.43 µM)
[2]; strain SEC059
  MIC: 0.5 µg/mL (≈ 1.43 µM)
[2]; strain SEC060
  MIC: 0.5 µg/mL (≈ 1.43 µM)
[2]; strain SEC061
  MIC: 2 µg/mL (≈ 5.72 µM)
[2]; strain SEC062
  MIC: 2 µg/mL (≈ 5.72 µM)
[2]; strain SEC063
  MIC: 1 µg/mL (≈ 2.86 µM)
[2]; strain SEC064
  MIC: 1 µg/mL (≈ 2.86 µM)
[2]; strain SEC065
  MIC: 1 µg/mL (≈ 2.86 µM)
[2]; strain SEC067
  MIC: 1 µg/mL (≈ 2.86 µM)
[2]; strain SEC068
  MIC: 1 µg/mL (≈ 2.86 µM)
[2]; strain SEC069
  MIC: 1 µg/mL (≈ 2.86 µM)
[2]; strain SEC070
  MIC: 4 µg/mL (≈ 11.4 µM)
[2]; strain SEC071
  MIC: 8 µg/mL (≈ 22.9 µM)
[2]; strain SEC072
  MIC: 8 µg/mL (≈ 22.9 µM)
[2]; strain SEC073
  MIC: 8 µg/mL (≈ 22.9 µM)
[2]; strain SEC074
  MIC: 1 µg/mL (≈ 2.86 µM)
[2]; strain SEC075
  MIC: 1 µg/mL (≈ 2.86 µM)
[2]; strain SEC076
  MIC: 1 µg/mL (≈ 2.86 µM)
[2]; strain SEC077
  MIC: 0.5 µg/mL (≈ 1.43 µM)
[2]; strain SEC078
  MIC: 0.5 µg/mL (≈ 1.43 µM)
[2]; strain SEC079
  MIC: 1 µg/mL (≈ 2.86 µM)
[2]; strain SEC080
  MIC: 1 µg/mL (≈ 2.86 µM)
NfsB
  NfsB activity (rate of compound conversion): 7.64 µM/min
[3]
  MIC ∆nfsAB & ∆acrB+nfnB: 0.6
